Laboratory results published in patent US7259167B2, “Antimalarial and antiproliferative pharmacophore models, novel tryptanthrin compounds having increased solubility, and methods of making and using thereof” (United States of America as Represented by the Secretary of …, priority 2002, dated 2007).

Experiment: Solubility of DN49 in various solvents
Type: physicochemical
Details: for solubility: organic solvent or mixture
Protocol: The solubility of DN49 (WR288510) was tested in various solvents to determine the properties encouraging solubility. […] An N—H group on an aromatic compound might be forming a complex with tryptanthrin. […] (200 mM) concentration in a solvent. The temperature is a close approximation to the temperature required to achieve solubility. Color is the color of the solution; DN49 is a yellow compound and colors other than yellow indicate close interaction between solvent and solute. Precipitate is whether or not DN49 precipitated out upon cooling to room temperature.

For O=C1c2ccccc2-n2c1nc1ncccc1c2=O [DN49], which “Precipitate upon cooling to room temperature” value (from here on “Precipitate upon cooling”) (1,4-dioxane) is on record?
Its value is “yes”.

And the solubility (1,4-dioxane, 80 °C)?
Its solubility is greater than 25 mg/mL.

What about the solubility (3,4-dihydro-2H-pyran) of the same molecule?
The solubility was less than 25 mg/mL.

What about the “Precipitate upon cooling” value (Aniline) of the same molecule?
Its value is “No”.

And the solubility (Aniline, 18 °C)?
The solubility was greater than 25 mg/mL.

What about the “Precipitate upon cooling” value (Benzoic acid) of the same molecule?
Its value is “Yes”.

What about the solubility (Benzoic acid, 50 °C) of the same molecule?
Its solubility is greater than 25 mg/mL.

What about the solubility (Benzyl alcohol, 30 °C, Benzyly alcohol) of the same molecule?
Its solubility is greater than 25 mg/mL.

What about the “Precipitate upon cooling” value (Benzyly alcohol) of the same molecule?
The value was “No”.

And the solubility (Diethylamine)?
Its solubility is less than 25 mg/mL.

And the solubility (Dimethylsulfoxide, Dimethylsufoxide)?
The solubility was less than 25 mg/mL.

And the “Precipitate upon cooling” value (Indole)?
The value was “Solidified”.

What about the solubility (Indole, 53 °C) of the same molecule?
Its solubility is greater than 25 mg/mL.

What about the “Precipitate upon cooling” value (Isoquinoline) of the same molecule?
Its value is “Solidified”.

And the solubility (Isoquinoline)?
The solubility was greater than 25 mg/mL.

What about the “Precipitate upon cooling” value (N-methylbenzylamine) of the same molecule?
The value was “No”.

What about the solubility (N-methylbenzylamine) of the same molecule?
The solubility was greater than 25 mg/mL.

And the solubility (N-methylpiperidine)?
The solubility was less than 25 mg/mL.

What about the “Precipitate upon cooling” value (Nitrobenzene) of the same molecule?
Its value is “Yes”.

And the solubility (Nitrobenzene)?
Its solubility is greater than 25 mg/mL.

What about the “Precipitate upon cooling” value (Phenol) of the same molecule?
Its value is “solidified”.

And the solubility (Phenol)?
The solubility was greater than 25 mg/mL.

What about the “Precipitate upon cooling” value (Piperidine) of the same molecule?
The value was “No”.

And the solubility (Piperidine)?
Its solubility is greater than 25 mg/mL.

What about the “Precipitate upon cooling” value (Pyridine) of the same molecule?
The value was “Yes”.

And the solubility (Pyridine)?
The solubility was greater than 25 mg/mL.

What about the “Precipitate upon cooling” value (Pyrrole) of the same molecule?
Its value is “No”.

And the solubility (Pyrrole)?
The solubility was greater than 25 mg/mL.

And the “Precipitate upon cooling” value (Pyrrolidine)?
Its value is “No”.

What about the solubility (Pyrrolidine) of the same molecule?
Its solubility is greater than 25 mg/mL.

What about the solubility (Tetrahydrofuran) of the same molecule?
Its solubility is less than 25 mg/mL.

And the solubility (Toluene)?
Its solubility is less than 25 mg/mL.

And the solubility (Triethylamine)?
The solubility was less than 25 mg/mL.
